{"source": "patent US20250186448A1", "about": "(Mezzion Pharma Co., Ltd., priority 2021, published 2025)", "key": {"[1]": {"system": "adolescents with Single Ventricle Heart Disease who underwent Fontan palliation", "experiment": "FALD study: liver stiffness by ultrasound shear wave elastography (SWE)", "assay_type": "in vivo, human", "set-up": "USWE, Post Baseline: unit not given beside the values; USWE, Change from Baseline: unit not given here", "conditions": "Cohort U− (udenafil for 52 weeks), individual subject", "from_the_text": "Ultrasound SWE uses one or more acoustic radiation force impulses (ARFI) or “push pulses” to generate shear waves in the tissue of interest. These shear waves can be tracked and their speed measured, with increasing tissue stiffness associated with increasing tissue shear wave speed. Shear wave speed can be mathematically converted to both shear and Young's moduli (in kPa), mechanical properties related to tissue rigidity and elasticity. There are two major forms of ultrasound SWE-“point” and “2D”. Point ultrasound SWE provides a very focal estimate of liver stiffness using a small region-of-interest, wh[…] ultrasound SWE provides a regional color parameteric map (elastogram) of image stiffness and allows measurement over a much larger area of the liver. The FALD study, ClinicalTrials.gov Identifier: NCT03430583, which is incorporated herein by reference in its entirety, was an open-label extension study that integrated with the FUEL Extension Trial. […] Both the U- cohort and the U+ cohort had liver stiffness measured by ultrasound and MR elastography (where available), and ELF biomarkers analyzed, as described above. […] The primary outcome measure of the FALD study was the range of liver stiffness in adolescents with Single Ventricle Heart Disease who underwent Fontan palliation. Secondary outcome measures included the effect of drug therapy on liver stiffness, and the effect of drug therapy on Enhanced Liver Fibrosis (ELF) score. See Clinical Trials.gov identifier NCT03430583, at p. 3. It is to be understood that present invention contemplates udenafil drug products that are therapeutically equivalent to the udenafil drug products of the present invention."}, "[2]": {"system": "adolescents with Fontan physiology", "experiment": "FUEL trial: resting data and cardiopulmonary exercise test (CPET), cycle ergometer ramp protocol", "assay_type": "in vivo, human", "conditions": "for Anaerobic threshold VE/VCO2 / Anaerobic threshold oxygen consumption / Anaerobic threshold work / Peak exercise heart rate / Peak exercise minute ventilation / Peak exercise oxygen consumption / Peak exercise oxygen saturation / Peak exercise respiratory rate / Peak exercise work rate / Resting diastolic blood pressure / Resting heart rate / Resting oxygen saturation / Resting systolic blood pressure: mean ± SD; for Resting oxygen saturation, change: p 0.002 vs placebo; for Resting diastolic blood pressure, change: p 0.003 vs placebo; for Anaerobic threshold VE/VCO2, change: p 0.011 vs placebo", "from_the_text": "Exercise testing can include assessment of VO2 values during maximal effort or at the ventilator anaerobic threshold (VAT). VO2 max, or maximal oxygen consumption, refers to the maximum amount of oxygen that an individual can utilize during intense exercise. This measurement is generally considered a reliable indicator of cardiovascular fitness and aerobic endurance. The more oxygen a person can use during high level exercise, the more energy that person can produce. This test has been the standard for cardiorespiratory fitness because muscles need oxygen for prolonged (aerobic) exercise; blood carries oxygen to the muscles and the heart must pump adequate amounts of blood to meet the demands of aerobic exercise.\nVO2 is often measured by putting a mask on a subject, and measuring the volume and gas concentrations of inhaled and expired air. This measurement is often used in both clinical settings and research and is considered the most accurate. Testing commonly involves either exercising on a treadmill or riding a cycle ergometer at increasing intensity until exhaustion, and is designed to provide readings at a maximal effort of the subject and/or at the subject's anaerobic threshold.\nExercise testing can include assessment of VO2 values during maximal effort or at ventilator anaerobic threshold (“VAT”). VO2 max (“peak VO2”), or maximal (“peak”) oxygen consumption, refers to the maximum amount of oxygen that an individual can utilize during intense exercise. This measurement is generally considered a reliable indicator of cardiovascular fitness and aerobic endurance. Theoretically, the more oxygen a person can use during exercise, the more energy that person can produce. This test is often used for cardiorespiratory fitness because muscles need oxygen for prolonged (aerobic) exercise; blood carries oxygen to the muscles and the heart must pump adequate amounts of blood to meet the demands of aerobic exercise. However, while peak VO2 may be useful as a surrogate for many cardiovascular disease states, it may not be as relevant an endpoint after the Fontan operation. In this unique physiology, central venous pressure, rather than right ventricular contraction (pumping), is the primary driver of transpulmonary blood flow and, therefore, cardiac output. Gewillig M and Goldberg D J. Failure of the fontan circulation. Heart Fail Clin. 10(1):105-116 (January 2014); Egbe A C, Connolly H M, Miranda W R, Ammash N M, Hagler D J, Veldtman G R and Borlaug B A. Hemodynamics of Fontan Failure: The Role of Pulmonary Vascular Disease. Circ Heart Fail. 10(12): e004515 (September 2017); Gewillig M, Brown S C, Eyskens B, Heying R, Ganame J, Budts W, La Gerche A and Gorenflo M. The Fontan circulation: who controls cardiac output?Interact Cardiovasc Thorac Surg. 10(3):428-433 (March 2010); and Goldberg D J, Avitabile C M, McBride M G and Paridon S M. Exercise capacity in the Fontan circulation. Cardiol Young. 23(6):824-830 (December 2013). As the demand for cardiac output increases with exertion, central venous pressure in the Fontan circulation must rise to meet that demand, but eventually reaches a critical ceiling beyond which it can rise no further. Navaratnam D, Fitzsimmons S, Grocott M, Rossiter H B, Emmanuel Y, Diller G P, Gordon-Walker T, Jack S, Sheron N, Pappachan J, Pratap J N, Vettukattil J J and Veldtman G. Exercise-Induced Systemic Venous Hypertension in the Fontan Circulation. Am J Cardiol. 117(10):1667-1671 (May 15, 2016).\nVO2 is often measured by putting a mask on a subject, and measuring the volume and gas concentrations of inhaled and expired air. This measurement is often used in both clinical settings and research and has been considered the most accurate. Testing commonly involves either exercising on a treadmill or riding a cycle ergometer at increasing intensity until exhaustion, and is designed to provide readings at a maximal effort of the subject and/or at the subject's anaerobic threshold. […]"}, "[3]": {"conditions": "87.5 mg twice daily, Change baseline to 26-week"}, "[4]": {"conditions": "87.5 mg twice daily, Change baseline to 26-week, listed as udenafil"}, "[5]": {"conditions": "87.5 mg twice daily, baseline to 26-week"}}, "note": "Several values for one entry are separate records, joined by “and”; a condition that tells them apart may be missing. Equal entries are not always repeated. Entries after “also recorded” stand apart in the source; their conditions may differ."}
{"smiles": "CCCOc1ccc(S(=O)(=O)NCCC2CCCN2C)cc1-c1nc2c(CCC)nn(C)c2c(=O)[nH]1", "note": "(stereo not drawn) [Udenafil, udenafil]", "values": [{"measurement": "USWE, % Change from Baseline", "setting": "[1]", "result": "−2.439% and −7.692% and 6.011% and 20.92% and −0.9302% and −22.07% and −1.22%"}, {"measurement": "USWE, Change from Baseline", "setting": "[1]", "result": "−0.06 and −0.13 and 0.11 and 0.41 and −0.02 (2×) and −0.49 and 0.09"}, {"measurement": "USWE, Post Baseline", "setting": "[1]; Post Baseline visit (52 week)", "result": "2.4 and 1.56 and 1.94 and 2.37 and 2.13 and 1.73 and 1.62 and 2.08"}, {"measurement": "Multiple measures of exercise performance at the ventilatory anaerobic threshold, udenafil vs placebo", "setting": "[2]; 87.5 mg twice daily", "result": "statistically significant improvements"}, {"measurement": "Anaerobic threshold VE/VCO2", "setting": "[2]; 87.5 mg twice daily, 26-week", "result": "33.6 ± 4.8"}, {"measurement": "Anaerobic threshold oxygen consumption", "setting": "[2]; 87.5 mg twice daily, 26-week", "result": "1059 ± 292", "unit": "mL/min"}, {"measurement": "Anaerobic threshold work", "setting": "[2]; 87.5 mg twice daily, 26-week", "result": "69.2 ± 26", "unit": "W"}, {"measurement": "Peak exercise heart rate", "setting": "[2]; 87.5 mg twice daily, 26-week", "result": "165 ± 20", "unit": "bpm"}, {"measurement": "Peak exercise minute ventilation", "setting": "[2]; 87.5 mg twice daily, 26-week", "result": "73 ± 22", "unit": "L/min"}, {"measurement": "Peak exercise oxygen consumption", "setting": "[2]; 87.5 mg twice daily, 26-week", "result": "1606 ± 452", "unit": "mL/min"}, {"measurement": "Peak exercise oxygen saturation", "setting": "[2]; 87.5 mg twice daily, 26-week", "result": "89.6 ± 4.9", "unit": "%"}, {"measurement": "Peak exercise respiratory rate", "setting": "[2]; 87.5 mg twice daily, 26-week", "result": "50 ± 12", "unit": "breaths/min"}, {"measurement": "Peak exercise work rate", "setting": "[2]; 87.5 mg twice daily, 26-week", "result": "124 ± 32", "unit": "W"}, {"measurement": "Resting diastolic blood pressure", "setting": "[2]; 87.5 mg twice daily, 26-week", "result": "65.3 ± 9.9", "unit": "mmHg"}, {"measurement": "Resting heart rate", "setting": "[2]; 87.5 mg twice daily, 26-week", "result": "86.6 ± 15.4", "unit": "bpm"}, {"measurement": "Resting oxygen saturation", "setting": "[2]; 87.5 mg twice daily, 26-week", "result": "93.3 ± 3.5", "unit": "%"}, {"measurement": "Resting systolic blood pressure", "setting": "[2]; 87.5 mg twice daily, 26-week", "result": "110.5 ± 12.0", "unit": "mmHg"}, {"measurement": "Anaerobic threshold VE/VCO2", "setting": "[2]; 87.5 mg twice daily, Baseline", "result": "34.3 ± 4.9"}, {"measurement": "Anaerobic threshold oxygen consumption", "setting": "[2]; 87.5 mg twice daily, Baseline", "result": "1039 ± 301", "unit": "mL/min"}, {"measurement": "Anaerobic threshold work", "setting": "[2]; 87.5 mg twice daily, Baseline", "result": "66.2 ± 26", "unit": "W"}, {"measurement": "Peak exercise heart rate", "setting": "[2]; 87.5 mg twice daily, Baseline", "result": "165 ± 20", "unit": "bpm"}, {"measurement": "Peak exercise minute ventilation", "setting": "[2]; 87.5 mg twice daily, Baseline", "result": "71 ± 21", "unit": "L/min"}, {"measurement": "Peak exercise oxygen consumption", "setting": "[2]; 87.5 mg twice daily, Baseline", "result": "1562 ± 437", "unit": "mL/min"}, {"measurement": "Peak exercise oxygen saturation", "setting": "[2]; 87.5 mg twice daily, Baseline", "result": "89.2 ± 5.3", "unit": "%"}, {"measurement": "Peak exercise respiratory rate", "setting": "[2]; 87.5 mg twice daily, Baseline", "result": "51 ± 11", "unit": "breaths/min"}, {"measurement": "Peak exercise work rate", "setting": "[2]; 87.5 mg twice daily, Baseline", "result": "120 ± 32", "unit": "W"}, {"measurement": "Resting diastolic blood pressure", "setting": "[2]; 87.5 mg twice daily, Baseline", "result": "68.4 ± 9.5", "unit": "mmHg"}, {"measurement": "Resting heart rate", "setting": "[2]; 87.5 mg twice daily, Baseline", "result": "87.5 ± 15.3", "unit": "bpm"}, {"measurement": "Resting oxygen saturation", "setting": "[2]; 87.5 mg twice daily, Baseline", "result": "92.8 ± 3.9", "unit": "%"}, {"measurement": "Resting systolic blood pressure", "setting": "[2]; 87.5 mg twice daily, Baseline", "result": "112.3 ± 12.1", "unit": "mmHg"}, {"measurement": "Resting oxygen saturation, change", "setting": "[2]; [3]", "result": "0.5 ± 2.4", "unit": "%"}, {"measurement": "Resting oxygen saturation, change", "setting": "[2]; [4]", "result": "+0.5%"}, {"measurement": "Resting diastolic blood pressure, change", "setting": "[2]; [3]", "result": "−2.9 ± 9.7", "unit": "mmHg"}, {"measurement": "Resting diastolic blood pressure, change", "setting": "[2]; [4]", "result": "−2.9", "unit": "mmHg"}, {"measurement": "Anaerobic threshold VE/VCO2, change", "setting": "[2]; [3]", "result": "−0.76 ± 3.6^"}, {"measurement": "Anaerobic threshold VE/VCO2, change", "setting": "[2]; [4]", "result": "−0.8"}, {"measurement": "Anaerobic threshold oxygen consumption (VO2 at VAT), change", "setting": "[2]; 87.5 mg twice daily, Change baseline to 26-week, p 0.023 vs placebo", "result": "29.7 ± 177", "unit": "mL/min"}, {"measurement": "Anaerobic threshold work (work rate at VAT), change", "setting": "[2]; 87.5 mg twice daily, Change baseline to 26-week, p 0.029 vs placebo", "result": "3.5 ± 15", "unit": "W"}, {"measurement": "Peak exercise oxygen consumption (peak VO2, VO2 max), change", "setting": "[2]; 87.5 mg twice daily, Change baseline to 26-week, p 0.071 vs placebo", "result": "44 ± 245", "unit": "mL/min"}, {"measurement": "Resting systolic blood pressure, change", "setting": "[2]; 87.5 mg twice daily, Change baseline to 26-week, p 0.18 vs placebo", "result": "−1.8 ± 12.2", "unit": "mmHg"}, {"measurement": "Resting heart rate, change", "setting": "[2]; 87.5 mg twice daily, Change baseline to 26-week, p 0.78 vs placebo", "result": "−0.9 ± 12.7", "unit": "bpm"}, {"measurement": "Peak exercise work rate, change", "setting": "[2]; 87.5 mg twice daily, Change baseline to 26-week, p 0.85 vs placebo", "result": "3.2 ± 14", "unit": "W"}, {"measurement": "VE/VCO2 measured at VAT, decreased by, percent", "setting": "[2]; [5]", "result": 2.1, "unit": "%"}, {"measurement": "Work rate at VAT improved by, percent", "setting": "[2]; [5]", "result": "5.5% and 5.2%"}, {"measurement": "Change in resting heart rate, respiratory rate, or systolic blood pressure, udenafil vs placebo", "setting": "[2]; baseline to 26-week", "result": "no difference"}, {"measurement": "Diastolic blood pressure in the udenafil group, in words", "setting": "[2]; baseline to 26-week", "result": "small but statistically significant decrease"}, {"measurement": "Resting oxygen saturation in the udenafil group, in words", "setting": "[2]; baseline to 26-week", "result": "small but statistically significant increase"}, {"measurement": "Oxygen consumption at peak exercise (peak VO2), difference udenafil vs placebo", "setting": "[2]; p=0.071", "result": "did not reach statistical significance; also recorded: not associated with a statistically significant improvement"}]}
